Assay results: patent publication US20110160056A1, “Triazole compounds, the use thereof and preparations containing these compounds” (BASF SE, priority 2008, published 2011)

Tests used:
Botrytis cinerea = assay: Activity against the gray mold pathogen in the microtiter test; format: cell-based; settings: 168 h, 31 ppm active compound, absorption at 405 nm on day 7 after inoculation, relative to active compound-free control
Septoria tritici = assay: Activity against the Septoria leaf blotch pathogen in the microtiter test; format: cell-based; settings: Zymoseptoria tritici, 168 h; 31 ppm active compound; absorption at 405 nm on day 7 after inoculation; relative to active compound-free control (100%)
Procedure: The stock solution was pipetted into a microtiter plate (MTP) and diluted with water to the stated active compound concentration. An aqueous malt-based spore suspension of Septoria tritici was then added. The plates were placed in a water vapor-saturated chamber at temperatures of 18° C. Using an absorption photometer, the MTPs were measured at 405 nm on day 7 after the inoculation. The measured parameters were compared to the growth of the active compound-free control variant (100%) and the fungus- and active compound-free blank value to determine the relative growth in % of the pathogens in the individual active compounds.

Row | Structure (SMILES) | relative pathogen growth at 31 ppm (Botrytis cinerea) [%] | relative pathogen growth at 31 ppm (Septoria tritici) [%]
1 | CC(C)(C)C(O)C(CCCCOc1cc(Cl)ccc1F)n1cncn1 (stereo not drawn) [I.12b, 8-(5-chloro-2-fluorophenoxy)-2,2-dimethyl-4-[1,2,4]triazol-1-yloctan-3-ol] | ≤ 13 | ≤ 14
2 | CC(C)(C)C(O)C(COc1ccc(Cl)cc1Br)n1cncn1 (stereo not drawn) [I.32] | ≤ 13 | 
3 | CC(C)(C)C(O)C(COc1ccc(F)c(F)c1F)n1cncn1 (stereo not drawn) [I.40] | ≤ 13 | ≤ 14
4 | Cc1cc(F)ccc1OCC(C(O)C(C)(C)C)n1cncn1 (stereo not drawn) [I.8] | ≤ 13 | ≤ 14
5 | CC(C)(C)C(O)C(COc1cccc(C(F)(F)F)c1F)n1cncn1 (stereo not drawn) [I.45] | ≤ 13 | ≤ 14
